Reference: patent US10787512B2, “Melatonin monoclonal antibody, detection, methods and uses thereof” (SALIMETRICS, LLC, priority 2013, dated 2020)

Tests used:
[1] = tested on: rabbit monoclonal antibody to Melatonin; experiment: Cross reactivity in Rapid Melatonin ELISA (competitive, melatonin-HRP); type: binding; details: tested at 10 to 20-fold above the highest standard (50 pg/ml); predicted value as melatonin divided by actual concentration added
Method: A microtitre plate (described below) is coated with the rabbit monoclonal antibody to Melatonin. Melatonin in standards and unknowns competes with Melatonin linked to horseradish peroxidase for the antibody binding sites. After incubation unbound components are washed away. Bound Melatonin peroxidase is measured by the reaction of the peroxidase enzyme on the substrate tetramethylbenzidine (TMB). This reaction produces a blue color. A yellow color is formed after stopping the reaction with 2-molar sulfuric acid. Optical density is read on a standard plate reader at 450 nm. The amount of Melatonin peroxidase detected is inversely proportional to the amount of Melatonin present.
Microwell plates (CoStar High Binder) were coated overnight with 0.5 ug/ml goat anti-rabbit at room temperature [100 uL/well]; Coating Buffer-NaHCO3 (2.93 g)+Na2CO3 (1.59 g) in 1000 ml Water, pH 9.6 under controlled humidity. After washing the plates 3 times in a wash buffer comprised of PBS (phosphate buffered saline) with 0.05% Tween 20, the plates were then coated with the rabbit monoclonal at 10 ng/ml in PBS with 0.01% BSA (bovine serum albumin) overnight at room temperature under controlled humidity. The plates were again washed and coated with 0.5% Stabilcoat (Surmodics) containing 0.1% normal rabbit serum. After approximately 2 hours the plates were aspirated, dried and pouched.
A primary dilution of Melatonin-HRP was made at 50 ug/ml in […]® Conjugate stabilizer (Pierce-Thermo) for storage. At the time of the assay, it is then diluted to 100 ng/ml in a phosphate or Tris Buffered Saline, pH 7.2 with 1% BSA (Diluent).
Melatonin reference material from Cerilliant was diluted in diluent to 50 pg/ml. The standard curve was prepared by making 2× serial dilutions to 0.78 pg/ml in Diluent. Pipette: 100 ul Melatonin Standards/Samples/Controls to each well of the coated microwell plate. Pipette: 50 ul conjugate to each well. Incubate: 3 hr at 2-8° C. or Room Temperature with shaking (˜500 rpm). Wash: 4×300 uL, no soak. Pipette: 100 uL tetramethylbenzidine (TMB). Incubate: Room Temp for 30 min with shaking. Pipette: 50 uL 2M H2SO4. Mix 10-15 seconds. Read Plate: OD 450-630 nm.
Chemical compounds with structural similarity to melatonin were tested at levels 10 to 20-fold higher than the highest standard (50 pg/ml) as samples. The predicted value (as melatonin) was divided by the actual concentration added to calculate % cross-reactivity.

[2] = tested on: rabbit monoclonal antibody to Melatonin; experiment: Specificity of Salimetrics Salivary Melatonin kit, cross reactants spiked into saliva; type: binding; details: spiked into saliva up to 2000 pg/ml; melatonin EC50 (B/Bo=0.5) divided by cross reactant EC50
Method: The Salimetrics™ Salivary Melatonin kit is a competitive immunoassay designed and validated for the quantitative measurement of salivary melatonin. The assay format and detection method are illustrated in FIG. 3, and are briefly summarized as follows: A microtitre plate is coated with rabbit monoclonal antibody to melatonin. Melatonin in standards, controls and unknowns compete with melatonin linked to horseradish peroxidase for the antibody binding sites on the microplate. After incubation, unbound components are washed away. Bound melatonin peroxidase is measured by the reaction of the horseradish peroxidase enzyme with the substrate tetramethylbenzidine (TMB). This reaction produces a blue color. A yellow color is formed after stopping the reaction with 2-molar acid solution. Optical density is read on a standard microplate reader at 450 nm-630 nm. The amount of melatonin-tagged peroxidase detected, as measured by the intensity of color, is inversely proportional to the amount of melatonin present in the sample.
Step 2: Keep the desired number of strips in the strip holder and place the remaining strips back in the foil pouch. Reseal the foil pouch with unused wells and desiccant. Store at 2-8° C. […] Step 3: Pipette 8 ml of Melatonin Assay Diluent into a disposable tube. (Scale down proportionally if not using a full plate). Set aside for Step 5. Step 4: Pipette 100 μL, of standards, controls, and unknown samples into appropriate wells. Standards, controls, and unknown samples should be assayed in duplicate. • Pipette 100 μL, of Melatonin Assay Diluent into 2 wells for the 0 Standard. Step 5: Dilute the enzyme conjugate 1:500 by adding 16 μL of the conjugate to the 8 ml of melatonin assay diluent prepared in Step 3. (Scale down proportionally if not using the entire plate.) Conjugate tube may be centrifuged for a few minutes to bring the liquid down to the tube bottom. Immediately mix the diluted conjugate solution and add 50 μL to each well using a multichannel pipette. Step 6: Place adhesive cover (provided) over plate. Mix plate constantly on a plate rotator at 500 rpm and incubate at 2-8° C. for a total of 3 hours. Step 7: Wash the plate 4 times with 1× wash buffer. A plate washer is recommended. However, washing may be done by gently squirting wash buffer into each well with a squirt bottle, or by pipetting 300 μL, of wash buffer into each well and then discarding the liquid by inverting the plate over a sink. After each wash, the plate should be thoroughly blotted on paper towels before turning upright. If using a plate washer, blotting is still recommended after the last wash. Step 8: Add 100 μL of TMB substrate solution to each well with a multichannel pipette. Step 9: Incubate the plate in the dark at room temperature for 30 minutes mixing constantly on a plate rotator at 500 rpm. Step 10: Add 50 μL of 2M stop solution with a multichannel pipette. Step 11: Mix on a plate rotator for 3 minutes at 500 rpm. Spillage may occur if mixing speed exceeds 600 rpm. If green color remains, continue mixing until green color turns to yellow. Be sure all wells have turned yellow. • Wipe off bottom of plate with a water-moistened, lint-free cloth and wipe dry. • Read in a plate reader at 450 nm with a secondary filter at 620 to 630 nm. Performance characteristics are not known without secondary or reference filter. Read the plate within 10 minutes of adding 2M stop solution. High and Low salivary Melatonin controls should be run with each assay. The control ranges established are to be used as a guide. Each laboratory should establish its own range. Variations between laboratories may be caused by differences in techniques and instrumentation.
Calculations • 1. Compute the average optical density (OD) for all duplicate wells. • 2. Calculate the percent bound (B/Bo) for each standard, control and unknown by dividing the OD of each well (B) by the average OD for the 0 (Bo). • 3. […]

[3] = Storage stability of melatonin in saliva samples; type: physicochemical; details: after 4 days at 2-8° C.
Method: Sample Handling and Preparation • After collection it is important to keep samples cold, to minimize bacterial growth in the specimen. Refrigerate sample within 30 minutes, and freeze at or below −20° C. within 4 hours of collection. […] On day of assay, thaw the saliva samples completely, vortex, and centrifuge at 1500×g (@3000 rpm) for 15 minutes. Centrifuging removes mucins and other particulate matter which may interfere with antibody binding, leading to falsely elevated results. Samples should be at room temperature before adding to assay plate. Pipette clear sample into appropriate wells. Re-freeze saliva samples as soon as possible after adding to the assay plate. Centrifuge/re-centrifuge saliva samples each time that they are thawed. Avoid more than 2 freeze-thaw cycles after the initial freeze/thaw.

Row | SMILES | Cross Reactivity (%) [1] | Cross Reactivity [2] | Decrease of Melatonin levels [3]
1 | COc1ccc2[nH]cc(CCN)c2c1 [5-methoxy tryptamine] | <0.05% | <0.05% | –
2 | COc1ccc2[nH]cc(CCO)c2c1 [5-methoxy tryptophol] | 1.30% | 1.25% | –
3 | COc1cc2c(CCNC(C)=O)c[nH]c2cc1Cl [6-chloro melatonin] | 5.40% | 5.40% | –
4 | COc1cc2c(CCNC(C)=O)c[nH]c2cc1O [6-hydroxy melatonin] | <0.05% | <0.05% | –
5 | COc1ccc(NC=O)c(C(=O)CCNC(C)=O)c1 [AFMK, N^1-acetyl-N^2-formyl-5-methoxykynuramine] | 16.5% | 16.5% | –
6 | Cn1c(=O)c2c(ncn2C)n(C)c1=O [Caffeine] | <0.05% | <0.05% | –
7 | N[C@@H](Cc1c[nH]c2ccccc12)C(=O)O [L-Tryptophan] | <0.05% | <0.05% | –
8 | COc1ccc2[nH]cc(CCNC(C)=O)c2c1 [Melatonin, N-acetyl-5-methoxytryptamine] | – | – | ≥ 20%
9 | CC(=O)NCCc1c[nH]c2ccc(O)cc12 [N-acetyl serotonin] | <0.05% | <0.05% | –
10 | NCCc1c[nH]c2ccc(O)cc12 [Serotonin] | <0.05% | <0.05% | –
